This assay deals with N1 (A/HongKong/156/97 (H5N1)) sialidase (Influenza A virus, UniProt Q9W7Y7). As to the kind of experiment: biochemical.
Chain of N1 (A/HongKong/156/97 (H5N1)) sialidase (Q9W7Y7 whole entry, looked up): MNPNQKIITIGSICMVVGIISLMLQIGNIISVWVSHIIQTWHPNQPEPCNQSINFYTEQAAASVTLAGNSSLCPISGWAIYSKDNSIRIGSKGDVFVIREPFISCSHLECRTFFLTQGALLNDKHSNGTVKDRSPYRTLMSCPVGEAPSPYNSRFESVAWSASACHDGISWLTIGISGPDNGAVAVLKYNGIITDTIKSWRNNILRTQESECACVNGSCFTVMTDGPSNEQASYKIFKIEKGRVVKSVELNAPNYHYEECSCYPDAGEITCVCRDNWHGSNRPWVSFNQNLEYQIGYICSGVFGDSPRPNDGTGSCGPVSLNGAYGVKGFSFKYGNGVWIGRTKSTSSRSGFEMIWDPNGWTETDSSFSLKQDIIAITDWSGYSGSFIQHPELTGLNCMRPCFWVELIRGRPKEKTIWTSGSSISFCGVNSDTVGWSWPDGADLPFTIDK

As usually defined, the Ki is a measure of affinity in units of concentration, obtained from inhibition or displacement. For the compound `CC(=O)N[C@H]1[C@H]([C@H](O)[C@H](O)CO)OC(C(=O)O)=C[C@@H]1N=C(N)N` [Compound 1, zanamivir], the Ki came to 170 pM.

These data come from article PMC3060605 (Nature Communications, 2010).
